Reference: patent publication EP4603105A1, “PHARMACEUTICAL COMPOSITION CONTAINING CYCLIC COMPOUND HAVING SELECTIVE KRAS INHIBITORY EFFECT AGAINST HRAS AND NRAS” (CHUGAI SEIYAKU KABUSHIKI KAISHA, priority 2022, dated 2024)
Where a SMILES comes first, the peptide text is derived from it. Bridges are numbered along the chain shown (N, C = ends). [ ]: non-standard residue; d: D form. The star is where a group is joined. hPhe(3,5-F2-4-CF3) = N[C@@H](CCc1cc(F)c(C(F)(F)F)c(F)c1)C(=O)O; hPhe(3-Cl-4-CF3) = N[C@@H](CCc1ccc(C(F)(F)F)c(Cl)c1)C(=O)O; NPrPhe(4-CF3) = CCCN[C@@H](Cc1ccc(C(F)(F)F)cc1)C(=O)O; Pro(4-spirocPr) = O=C(O)[C@@H]1CC2(CC2)CN1; NMeGly(cPent) = CN[C@H](C(=O)O)C1CCCC1; Hyp = O=C(O)[C@@H]1C[C@@H](O)CN1; NMeD = CN[C@@H](CC(=O)O)C(=O)O; NMeL = CN[C@@H](CC(C)C)C(=O)O; αMeS = C[C@](N)(CO)C(=O)O; Morpholide = C1CN(*)CCO1; Ac5c = NC1(C(=O)O)CCCC1; Aze = O=C(O)[C@@H]1CCN1; Sar = CNCC(=O)O; Allyl = C=CC*

Key:
[1] = molecular target: GDP-bound KRAS wild-type protein (Homo sapiens, UniProt P01116); assay: Binding to KRAS by surface plasmon resonance (SPR), dissociation constant KD
Sequence of GDP-bound KRAS wild-type protein (P01116 1-188 isoform P01116-2): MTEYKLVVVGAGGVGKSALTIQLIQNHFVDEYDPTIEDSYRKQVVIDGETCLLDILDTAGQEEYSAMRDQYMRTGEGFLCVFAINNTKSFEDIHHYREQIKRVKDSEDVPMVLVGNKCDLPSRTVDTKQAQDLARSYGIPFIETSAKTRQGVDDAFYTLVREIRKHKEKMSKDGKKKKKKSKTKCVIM
Outline: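 Captured GDP-RAS (~100–300 RU) was exposed to increasing compound concentrations, 75 s per step, in running buffer with 10 µM GDP, 10 mM MgCl2 and 4% DMSO at pH 7.4.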

[2] = molecular target: GDP-bound NRAS wild-type protein (Homo sapiens, UniProt P01111); assay: Binding to NRAS by surface plasmon resonance (SPR), KD and KD ratio to KRAS
Sequence of GDP-bound NRAS wild-type protein (P01111 whole entry): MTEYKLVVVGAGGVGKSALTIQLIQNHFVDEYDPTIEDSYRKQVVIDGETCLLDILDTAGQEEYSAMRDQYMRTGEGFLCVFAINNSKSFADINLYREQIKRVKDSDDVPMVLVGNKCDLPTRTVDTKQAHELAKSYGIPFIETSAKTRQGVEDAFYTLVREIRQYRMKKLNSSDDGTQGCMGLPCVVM
Outline: (§1)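 Measured at 30°C: SPR with GDP-loaded, E. coli-expressed biotin-Avi RAS captured (~100–300 RU), ascending 75 s compound injections, HBS pH 7.4 with GDP, MgCl2, 4% DMSO. KD from 1:1 fit.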

[3] = test system: human lung cancer strain NCI-H441; type: cell-based
Outline: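 Signal came from […] measured per well once the reagent was added. Beforehand, cells were cultured at 37°C and 5% carbon dioxide on a compound series serially diluted in dimethyl sulfoxide.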

[4] = molecular target: HRAS wild-type protein (Homo sapiens, UniProt P01112); assay: Binding to HRAS by surface plasmon resonance (SPR), KD and KD ratio to KRAS
Sequence of HRAS wild-type protein (P01112 whole entry): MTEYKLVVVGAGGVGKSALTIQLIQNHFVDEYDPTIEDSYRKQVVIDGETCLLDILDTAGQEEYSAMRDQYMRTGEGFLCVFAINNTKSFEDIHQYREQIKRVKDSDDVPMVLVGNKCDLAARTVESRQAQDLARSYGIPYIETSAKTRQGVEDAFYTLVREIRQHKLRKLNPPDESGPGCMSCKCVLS
Outline: as §1

[5] = ratio of KD for GDP-bound NRAS wild-type protein to KD for KRAS
[6] = ratio of KD for HRAS wild-type protein to KD for KRAS
[7] = Single Cycle Kinetics, 1:1 binding model
[8] = ratio of KD value for GDP-bound NRAS wild-type protein to KD value for KRAS (SPR)
[9] = ratio of KD value for HRAS wild-type protein to KD value for KRAS (SPR)

Row | Compound | Kd ([1]; 1:1 binding model) [nM] | NRAS /KRAS [2, 5] | IC50 [3] [nM] | HRAS /KRAS [4, 6] | Kd ([1]; Single Cycle Kinetics) [nM] | Kd [1, 7] [nM] | NRAS /KRAS ([2]; ratio of the KD value with respect to GDP-bound NRAS wild-type protein to the KD value with respect to KRAS) | HRAS /KRAS ([4]; ratio of the KD value with respect to HRAS wild-type protein to the KD value with respect to KRAS) | NRAS /KRAS [2, 8] | HRAS /KRAS [4, 9]
1 | CCCN1C(=O)CN(C)C(=O)[C@@H]2CCN2C(=O)[C@H]([C@@H](C)CC)NC(=O)[C@H](CC(C)C)N(C)C(=O)C[C@@H](C(=O)N2CCOCC2)NC(=O)[C@H](C2CCCC2)N(C)C(=O)C2(CCCC2)NC(=O)[C@@H]2C[C@@H](OCC)CN2C(=O)[C@H](CCc2ccc(C(F)(F)F)c(Cl)c2)NC(=O)CN(C)C(=O)[C@@H]1Cc1ccc(C(F)(F)F)cc1 [PP0341] ([NMeL]I[Aze][Sar][NPrPhe(4-CF3)][Sar][hPhe(3-Cl-4-CF3)][Hyp](Et)[Ac5c][NMeGly(cPent)]D-Morpholide; lactam N-11) | 1.4 | B (a compound having 3 or more and less than 10 is denoted as B) | 135 | B (a compound having 3 or more and less than 10 is denoted as B) |  |  |  |  |  | 
2 | CCCO[C@@H]1C[C@H]2C(=O)N(C)C3(CC(C)(C)C3)C(=O)N(C)[C@@H](C(CC)CC)C(=O)N(C)[C@H](C(=O)N(C)C)CC(=O)N(C)[C@@H](COC)C(=O)N[C@@H]([C@@H](C)CC)C(=O)N(C)CC(=O)N(C)[C@H]3C/C=C\CCN(C3=O)[C@@H](Cc3ccc(C)cc3)C(=O)N(C)CC(=O)N[C@@H](CCc3ccc(Cl)c(Cl)c3)C(=O)N2C1 [PP2812] | 0.56 | AA (a compound having 20 or more is denoted as AA) | 41 | A (a compound having 10 or more and less than 20 is denoted as A) |  |  |  |  |  | 
3 | CCC[C@H]1C(=O)N[C@@H](C2CCCC2)C(=O)N(C)CC(=O)N(C)[C@H]2C/C=C\CCN(C2=O)[C@@H](Cc2ccc(C)cc2)C(=O)N(C)CC(=O)N[C@@H](CCc2ccc(C(F)(F)F)c(OC)c2)C(=O)N2CC3(CC3)C[C@H]2C(=O)NC2(CC(C)(C)C2)C(=O)N(C)[C@@H](CC(C)(C)C)C(=O)N(C)[C@H](C(=O)N(C)C)CC(=O)N1C [PP3010] | 0.41 | B (a compound having 3 or more and less than 10 is denoted as B) | 18.2 | B (a compound having 3 or more and less than 10 is denoted as B) |  |  |  |  |  | 
4 | CCC[C@H]1C(=O)N[C@@H]([C@@H](C)CC)C(=O)N(C)CC(=O)N(C)[C@H]2C/C=C\CCN(C2=O)[C@@H](Cc2ccc(C)cc2)C(=O)N(C)CC(=O)N[C@@H](CCc2cc(Cl)c3c(ccn3C)c2)C(=O)N2C[C@H](OCC)C[C@H]2C(=O)NC2(CC(C)(C)C2)C(=O)N(C)[C@@H](C2CCCC2)C(=O)N(C)[C@H](C(=O)N(C)C)CC(=O)N1C [PP2951] | 1 | A (a compound having 10 or more and less than 20 is denoted as A) | 37 | A (a compound having 10 or more and less than 20 is denoted as A) |  |  |  |  |  | 
5 | C=CCOC[C@]1(C)NC(=O)[C@@H]2CCCN2C(=O)[C@H](CCc2cc(F)c(C(F)(F)F)c(F)c2)NC(=O)CN(C)C(=O)[C@H](Cc2ccc(C(F)(F)F)cc2)N(CCC)C(=O)CN(C)C(=O)CN(C)C(=O)[C@H]([C@@H](C)CC)NC(=O)[C@H](CC(C)C)N(C)C(=O)C[C@@H](C(=O)N2CCOCC2)N(C)C(=O)[C@H](C2CCCC2)N(C)C1=O [PP0763] ([NMeL]I[Sar][Sar][NPrPhe(4-CF3)][Sar][hPhe(3,5-F2-4-CF3)]P[αMeS](Allyl)[NMeGly(cPent)][NMeD]-Morpholide; lactam N-11) |  | B (a compound having 3 or more and less than 10 is denoted as B) | 83 | B (a compound having 3 or more and less than 10 is denoted as B) | 0.98 |  |  |  |  | 
6 | CCO[C@@H]1C[C@H]2C(=O)NC3(CCC3)C(=O)N(C)[C@@H](C3CCCC3)C(=O)N(C)[C@H](C(=O)N(C)CC)CC(=O)N(C)[C@H]3CCCCCc4ccc(cc4)C[C@@H](C(=O)N(C)CC(=O)N[C@@H](CCc4cc(F)c(C(F)(F)F)c(F)c4)C(=O)N2C1)N1CC/C=C\C[C@@H](C1=O)N(C)C(=O)CN(C)C(=O)[C@H]([C@@H](C)CC)NC3=O [PP2117] |  |  | 28.9 |  |  | 0.17 | A (a compound having 10 or more and less than 20 is denoted as A) | A (a compound having 10 or more and less than 20 is denoted as A) |  | 
7 | CCO[C@@H]1C[C@H]2C(=O)NC3(CCC3)C(=O)N(C)[C@@H](C3CCCC3)C(=O)N(C)[C@H](C(=O)N(C)C)CC(=O)N(C)[C@@H](CC)C(=O)N[C@@H]([C@@H](C)CC)C(=O)N3CCC[C@H]3C(=O)N(C)[C@H]3C/C=C\CCN(C3=O)[C@@H](Cc3ccc(C(F)(F)F)cc3)C(=O)N(C)CC(=O)N[C@@H](CCc3cc(F)c(C(F)(F)F)c(F)c3)C(=O)N2C1 [PP1056] |  | A (a compound having 10 or more and less than 20 is denoted as A) | 75 | A (a compound having 10 or more and less than 20 is denoted as A) | 0.21 |  |  |  |  | 
8 | CCCOC[C@H]1C(=O)N[C@@H]([C@@H](C)CC)C(=O)N(C)CC(=O)N(C)[C@H]2C/C=C\CCN(C2=O)[C@@H](Cc2ccc(C)cc2)C(=O)N(C)CC(=O)N[C@@H](CCc2cc(F)c(C(F)(F)F)c(F)c2)C(=O)N2C[C@H](OCC)C[C@H]2C(=O)NC2(CC(C)(C)C2)C(=O)N(C)[C@@H](C2CCCC2)C(=O)N(C)[C@H](C(=O)N(C)CC)CC(=O)N1C [PP1577] |  |  | 6.7 |  |  | 0.17 |  |  | B (a compound having 3 or more and less than 10 is denoted as B) | B (a compound having 3 or more and less than 10 is denoted as B)
9 | CCCN1C(=O)CN(C)C(=O)[C@@H]2CCN2C(=O)[C@H]([C@@H](C)CC)NC(=O)[C@H](CC(C)C)N(C)C(=O)C[C@@H](C(=O)N2CCOCC2)N(C)C(=O)[C@H](C2CCCC2)N(C)C(=O)C2(CCCC2)NC(=O)[C@@H]2CC3(CC3)CN2C(=O)[C@H](CCc2ccc(C(F)(F)F)c(Cl)c2)NC(=O)CN(C)C(=O)[C@@H]1Cc1ccc(C(F)(F)F)cc1 [PP0308] ([NMeL]I[Aze][Sar][NPrPhe(4-CF3)][Sar][hPhe(3-Cl-4-CF3)][Pro(4-spirocPr)][Ac5c][NMeGly(cPent)][NMeD]-Morpholide; lactam N-11) | 1.1 | B (a compound having 3 or more and less than 10 is denoted as B) | 56 | B (a compound having 3 or more and less than 10 is denoted as B) |  |  |  |  |  | 
10 | C=CC[C@@H]1NC(=O)[C@H](CC2CC2)N(C)C(=O)C[C@@H](C(=O)N(C)CC=C)N(C)C(=O)[C@H](C2CCCC2)N(C)C(=O)C2(CCC2)NC(=O)[C@@H]2C[C@@H](OCC)CN2C(=O)[C@H](CCc2cc(F)c(C(F)(F)F)c(F)c2)NC(=O)CN(C)C(=O)[C@H](Cc2ccc(C(F)(F)F)cc2)N2CC/C=C\C[C@@H](C2=O)N(C)C(=O)CN(C)C1=O [PP1557] |  |  | 86.3 |  |  | 1.2 |  |  | A (a compound having 10 or more and less than 20 is denoted as A) | A (a compound having 10 or more and less than 20 is denoted as A)
11 | CCO[C@@H]1C[C@H]2C(=O)NC3(CC(C)(C)C3)C(=O)N(C)[C@@H](C3CCCC3)C(=O)N(C)[C@H](C(=O)N(C)CC)CC(=O)N(C)[C@@H](CC(C)C)C(=O)N[C@@H]([C@@H](C)CC)C(=O)N(C)CC(=O)N(C)[C@H]3C/C=C\CCN(C3=O)[C@@H](Cc3ccc(C(F)F)cc3)C(=O)N(C)CC(=O)N[C@@H](CCc3cc(C)c(C(F)F)c(C)c3)C(=O)N2C1 [PP3144] | 4.3 | A (a compound having 10 or more and less than 20 is denoted as A) | 72.7 | A (a compound having 10 or more and less than 20 is denoted as A) |  |  |  |  |  | 
